Measured values as given in US7354918B2, “Derivatives of 14.15-dihydro 20.21-dinoreburnamenin-14-ol and applications thereof” (Biocortech, priority 2004, dated 2008).

Assays:
Balb/c variety = experiment: Tail Suspension Test (TST); format: in vivo, Balb/c mice; details: 6-minute period, vehicle 180
Experimental: The behavioural activity test, the Tail Suspension Test (TST) validated by antidepressants (Ref. 7) in the Balb/c variety, was also done for the molecule in the preferred example (Ie1b) at a dose of 1 mg/kg i.p. The experiment given as an example was carried out three days after a single injection and the effect was compared with the effect of imipramine (30 mg/kg i.p. 30 minutes before the test) (see Table 4 below).
The results are the average for n animals.

[1] = system: tyrosine hydroxylase (TH) in the Locus Caeruleus (LC); experiment: TH protein content in the locus caeruleus, direct transfer of brain sections on nitrocellulose, quantitative immunochemistry; format: in vivo, Balb/c mice; details: for Quantity of TH measured in the LC: single dose 20 mg/kg i.p., sacrificed three days after injection, average±sem on the entire structure, percent of the average value of the corresponding control group
[2] = system: cells expressing hypocretins in the lateral hypothalamus; experiment: Distribution of cells expressing hypocretins in the lateral hypothalamus by immunocytochemistry; format: in vivo, Balb/c mice; details: single dose 20 mg/kg i.p.
Experimental: This property is shared with its direct synthesis precursor, the compound with formula (1). Table 3 below illustrates this type of result the two chemical entities:
The distribution of cells expressing hypocretins in the lateral hypothalamus is studied here with posterior—anterior sampling in consecutive 80 μm thick intervals. The cells are identified by immunocytochemistry using specific antibodies. The two molecules studied were administered by i.p. method with a single dose of 20 mg/kg. The animals were sacrificed three days after injection. A population of about a hundred supernumerary cells is thus identified at the posterior third of the cerebral core.

[3] = Biodistribution study (brain, liver) after i.p. and oral administration; format: in vivo; details: for share of the cerebral concentration: 45 minutes after p.o. administration of (Ie1) 60 mg/kg
[4] = system: cells containing TH in the LC; experiment: Number of TH immunopositive cells in the LC by immunohistochemistry; format: in vivo, Balb/c mice
Experimental: The number of immunopositive cells for TH is determined starting from coronal brain sections fixed by immunohistochemistry using the same anatomic sampling.
The results in FIG. 2 show the posterior-anterior distribution of the number of cells containing TH in the LC determined by immunohistochemistry obtained in a control group of Balb/c mice and in a group of mice treated by the molecule with formula (Ie1). Each bar represents the average obtained in each 80 μm anatomic interval in each experimental group±sem. **** indicates p<0.0001 determined by an ANOVA II (treatment factor). […] In the entire structure, the average values found were equal to 996±1 and 1250±58 in the control group and in the treated group respectively. (Administered dose 20 mg/kg i.p. sequential treatment at D0, D3, D6, D9 and D12, animals sacrificed at D16).
This phenomenon may be stabilised by an appropriate sequential treatment (for example: one 20 mg/kg i.p. injection every 3 days for 15 days, see FIG. 2). Under these conditions, the increase in the number of positive supernumerary TH cells that appeared in the LC is still maintained for 24 days after the treatment stopped.

[5] = system: positive TH fibres of the prefrontal cortex; experiment: Positive TH (noradrenergic) fibres in the prefrontal cortex by immunocytochemistry; format: in vivo, Balb/c mouse; details: 5 i.p. injections 20 mg/kg every three days, sacrificed three days after the last injection
Source text: The results in FIG. 3 show the distribution of positive TH fibres on a prefrontal cortex sample of the Balb/c mouse. At left: in a control mouse, the typical orientation (parallel to the surface of the cortex) of noradrenergic fibres identified using an immunocytochemical reaction related to the presence of TH protein, is noticed in the molecular layer of the prefrontal cortex. […] The animals were sacrificed three days after the last injection. The dashed lines mark the limit of the molecular layer of the prefrontal cortex.

[6] = system: voltage dependent Na channels; experiment: Receptorial profile in vitro on 74 receptors and channels; format: binding; details: concentration of 10 micromoles
[7] = system: voltage dependent K channels; experiment: as above; format: binding; details: concentration of 10 micromoles
[8] = system: voltage dependent Ca channels; experiment: as above; format: binding; details: concentration of 10 micromoles
SK+Ca channels = experiment: as above; format: binding; details: concentration of 10 micromoles
[9] = system: catecholamine transport systems; experiment: as above; format: binding; details: concentration of 10 micromoles
M1 receptors = target: T1, M1 receptors (Homo sapiens, UniProt P11229); experiment: as above; format: binding; details: concentration of 10 micromoles
T1 sequence (P11229 1-460): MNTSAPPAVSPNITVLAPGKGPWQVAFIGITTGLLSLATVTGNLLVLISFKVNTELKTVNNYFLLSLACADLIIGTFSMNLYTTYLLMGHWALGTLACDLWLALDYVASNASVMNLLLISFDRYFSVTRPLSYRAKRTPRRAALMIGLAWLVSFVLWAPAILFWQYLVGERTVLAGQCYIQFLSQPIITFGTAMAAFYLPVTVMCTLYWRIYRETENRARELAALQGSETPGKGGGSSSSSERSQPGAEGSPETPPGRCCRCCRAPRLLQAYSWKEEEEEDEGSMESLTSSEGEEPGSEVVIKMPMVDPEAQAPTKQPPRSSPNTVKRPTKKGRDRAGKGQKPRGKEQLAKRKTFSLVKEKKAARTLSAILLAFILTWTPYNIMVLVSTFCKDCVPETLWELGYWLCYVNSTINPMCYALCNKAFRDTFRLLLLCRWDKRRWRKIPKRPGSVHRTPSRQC

5HT5A receptors = 5HT5A receptors (Homo sapiens, UniProt P47898); experiment: as above; format: binding; details: concentration of 10 micromoles
[10] = Interval 1 (80 μm, posterior-anterior), sacrificed three days after injection
[11] = Interval 2, three days after injection
[12] = Interval 3, three days after injection
[13] = Interval 4, three days after injection
[14] = Interval 5, three days after injection
[15] = Interval 6, three days after injection
[16] = Interval 7, three days after injection
[17] = Interval 8, three days after injection
[18] = Interval 9, three days after injection
[19] = Interval 10, three days after injection
[20] = Interval 11, three days after injection
[21] = Sum of intervals 1-11, three days after injection

Chain of 5HT5A receptors (P47898 whole entry): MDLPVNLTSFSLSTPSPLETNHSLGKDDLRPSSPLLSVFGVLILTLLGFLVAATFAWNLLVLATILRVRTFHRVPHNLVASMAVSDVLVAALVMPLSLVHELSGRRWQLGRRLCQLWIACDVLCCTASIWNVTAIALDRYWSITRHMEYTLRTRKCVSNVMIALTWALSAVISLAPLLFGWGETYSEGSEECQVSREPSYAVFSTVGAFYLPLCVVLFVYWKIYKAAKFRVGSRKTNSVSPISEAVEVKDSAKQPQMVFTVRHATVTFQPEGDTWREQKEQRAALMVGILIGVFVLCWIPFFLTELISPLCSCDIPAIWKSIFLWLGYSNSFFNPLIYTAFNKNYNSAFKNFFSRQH

In the case of `CN(C)CCCN1c2ccccc2CCc2ccccc21` [Imipramine, imipramine, reference compound], the “Average immobilisation time” value (Balb/c variety; 30 mg/kg i.p. 30 minutes before the test) is reported as 70 s.
For “14,15-dihydro 14-(2-morpholin-4-yl-ethoxy) 20,21-dinoreburnamenin [(Ie1b)]”, the “activity relative to the other enantiomer (Ie1a)” value ([1]; mouse, in vivo) was “twice as active” and the “Average immobilisation time” value (Balb/c variety; 1 mg/kg i.p., three days after a single injection) was 130 s.
With `OC1C[C@H]2CCCN3CCc4c(n1c1ccccc41)[C@@H]23` (stereo partly drawn) [Compound (1), 14,15 dihydro-20,21-dinoreburnamenin14-ol, reference compound] the “Quantity of TH measured in the LC” value [1] was 120 ± 4%, the “Number of cells expressing hypocretins” value [2, 10] was 60.357 and the “Number of cells expressing hypocretins” value [2, 11] was 116.369. For the same molecule, the “Number of cells expressing hypocretins” value [2, 12] was 177.209, the “Number of cells expressing hypocretins” value [2, 13] was 317.237 and the “Number of cells expressing hypocretins” value [2, 14] was 367.454. The “Number of cells expressing hypocretins” value [2, 15] was 377.594, the “Number of cells expressing hypocretins” value [2, 16] was 365.523 and the “Number of cells expressing hypocretins” value [2, 17] was 236.600. The “Number of cells expressing hypocretins” value [2, 18] was 136.166, the “Number of cells expressing hypocretins” value [2, 19] was 60.840 and the “Number of cells expressing hypocretins” value [2, 20] was 23.177. For the same molecule, the “Number of cells expressing hypocretins” value [2, 21] was 2238.526, the “presence of the substance after i.p. administration of compound (Ie1)” value ([3]; 45 minutes after i.p. administration of (Ie1) 20 mg/kg) was “undetectable” and the “share of the cerebral concentration” value [3] was 11%.
For `C1=Cn2c3c(c4ccccc42)CCN2CCC[C@@H]1[C@H]32` [(Ij1)], the “Quantity of TH measured in the LC” value [1] was 123 ± 2%.
In the case of `c1ccc(COC2C[C@@H]3CCCN4CCc5c(n2c2ccccc52)[C@@H]34)cc1` (mixture of isomers) [Compound (Id), (±) (3β, 16α) 14,15-dihydro 14-benzyloxy 20,21-dinoreburnamenin], the “Quantity of TH measured in the LC” value [1] is reported as 129 ± 5%.
In the case of `O=C(COC1CC2CCCN3CCc4c(n1c1ccccc41)C23)NCCN1CCOCC1` (racemic) [Compound (If1), (±) (3β, 16α) 14,15-dihydro 14-[(2-morpholin-4-yl-ethylcarbamoyl)-methoxy]20,21-dinoreburnamenin], the “increase of the total TH content in the LC” value ([1]; FIG. 1, 3 days after a single i.p. injection (20 mg/kg), versus control mice) is reported as 13±3% and the “Quantity of TH measured in the LC” value [1] is reported as 113 ± 4%.
In the case of `Cc1noc(COC2C[C@@H]3CCCN4CCc5c(n2c2ccccc52)[C@@H]34)n1` (mixture of isomers) [(Ig1), (±) (3β, 16α) 14,15-dihydro 14-(3-methyl-[1,2,4]oxadiazol-5-ylmethoxy) 20,21-dinoreburnamenin], the “Quantity of TH measured in the LC” value [1] is reported as 118 ± 3%.
With `c1ccc2c(c1)c1c3n2[C@H](OCCN2CCOCC2)C[C@@H]2CCCN(CC1)[C@@H]32` (racemic) [Compound (Ie1), 14,15-dihydro 14-(2-morpholin-4-yl-ethoxy) 20,21-dinoreburnamenin] the “50% effective dose (DE50)” value ([1]; intra-peritoneal (i.p.) method) was 0.5 mg/kg, the “activity relative to direct synthesis precursor with formula (1)” value ([1]; mouse, in vivo) was 30 times and the activity by mouth ([1]; oral) was “active by mouth”. For the same molecule, the “50% effective dose (DE50)” value ([1]; oral (p.o.) method) was 1.5 mg/kg, the “Quantity of TH measured in the LC” value [1] was 138 ± 4% and the “number of cells containing TH in the LC, entire structure (average)” value ([4]; 20 mg/kg i.p. sequential treatment at D0, D3, D6, D9 and D12, sacrificed at D16, control group 996±1) was 1250±58. The “time for which the increase in positive supernumerary TH cells in the LC is maintained after the treatment stopped” value ([4]; one 20 mg/kg i.p. injection every 3 days for 15 days) was 24 days, the “density of noradrenergic fibres in the prefrontal cortex” value [5] was “very significant increase” and the “Number of cells expressing hypocretins” value [2, 10] was 31.9. For the same molecule, the “Number of cells expressing hypocretins” value [2, 11] was 63.7, the “Number of cells expressing hypocretins” value [2, 12] was 125.1 and the “Number of cells expressing hypocretins” value [2, 13] was 210.5. The “Number of cells expressing hypocretins” value [2, 14] was 331.7, the “Number of cells expressing hypocretins” value [2, 15] was 369.9 and the “Number of cells expressing hypocretins” value [2, 16] was 388.7. The “Number of cells expressing hypocretins” value [2, 17] was 322.5, the “Number of cells expressing hypocretins” value [2, 18] was 216.3 and the “Number of cells expressing hypocretins” value [2, 19] was 104.8. The “Number of cells expressing hypocretins” value [2, 20] was 56.0, the “Number of cells expressing hypocretins” value [2, 21] was 2221.1 and the “interaction with voltage dependent Na channels” value [6] was “no interaction”. For the same molecule, the “interaction with voltage dependent K channels” value [7] was “no interaction”, the “interaction with voltage dependent Ca channels” value [8] was “no interaction” and the “interaction with SK+Ca channels” value (SK+Ca channels) was “no interaction”. The “interaction with catecholamine transport systems” value [9] was “no interaction”, the “affinity for M1 receptors” value (M1 receptors) was “moderate affinity link may be suspected” and the “affinity for 5HT5A receptors” value (5HT5A receptors) was “moderate affinity link may be suspected”. For the same molecule, the “cerebral concentration/hepatic concentration ratio” value ([3]; 45 minutes after i.p. administration, 20 mg/kg) was 0.41, the “cerebral concentration/hepatic concentration ratio” value ([3]; 45 minutes after os administration, 60 mg/kg) was 0.49 and the “share of the cerebral concentration” value [3] was 89%.
With `CCOC(=O)COC1C[C@@H]2CCCN3CCc4c(n1c1ccccc41)[C@@H]23` (mixture of isomers) [(Ia1), (±) (16α) 14,15-dihydro 14-ethoxycarbonylmethoxy-20,21-dinoreburnamenin] the “Quantity of TH measured in the LC” value [1] was 151 ± 5%.
